Test results taken from patent US8563717B2, “Adenine derivatives” (GlaxoSmithKline LLC, priority 2008, dated 2013).
Counter-ions that a name gives are not always drawn.

Tests used:
Format in all cases: cell-based
TNF-α = assay: Induction of TNF-α using fresh human PBMCs; settings: PBMC, 24 hr incubation, relative to 2 μM resiquimod control, read-out: mean pEC50 for induction of TNF-α (converted)
Protocol: (§1) Assay for the Induction of Interferon-α and TNF-α Using Fresh Human Peripheral Blood Mononuclear Cells (PBMCs)
(§2) Compounds were dissolved and serially diluted in DMSO to give 100× the required concentration range using a Biomek 2000. 1 ul of test compound was transferred into 96-well tissue culture plates using a Biomek FX. Each compound was assayed in duplicate for each donor. Each plate contained a dilution series of the TLR7/8 agonist resiquimod as standard and Column 11 contained 1 μl of 200 μM resiquimod (giving a 2 μM final concentration, used to define the approximate maximal response to resiquimod).
(§3) Blood samples from two human donors were collected into sodium heparin (10 U/ml). 25 ml volumes of whole blood were overlaid onto 15 mls Histopaque in Leucosep tubes which were centrifuged at 800 g for 20 min and the band at the plasma/histopaque interface carefully removed. The collected cells were centrifuged at 2500 rpm for 10 min. and the pellet resuspended in 10 ml of media (RPMI 1640 (Low endotoxin) supplemented with 10% v/v foetal calf serum (FCS, low endotoxin) 100 U/ml penicillin G, 100 μg/ml streptomycin, 10 mM L-glutamine and 1× non-essential amino acids). A 1:20 dilution of the cells was prepared using trypan blue & the cells counted using a haemocytometer. The PBMCs were diluted to give a final concentration of 2×10^6/ml and 100 ul of this cells suspension was added to wells containing 1 μl of diluted test compound.
(§4) The cell preparations were incubated for 24 hr. (37° C., 95% air, 5% CO2) after which a sample of the supernatant was removed using the Biomek FX and assayed for both IFN-α and TNF-α using the MSD (Mesoscale Discovery) electrochemiluminescence assay platform. The IFN-α assay was carried out similarly to that described above. The TNF-α assay was carried out as per kit instructions (Cat No K111BHB).
(§5) Cytokine released was expressed as a percentage of the 2 μM resiquimod control (column 11). This percentage was plotted against compound concentration and the pEC50 for the response determined by non-linear least squares curve fitting. For the IFN-α responses generally a 4 parameter logistic model was selected. For the TNF responses where a clear maximum response was obtained (i.e. a well defined plateau in the response was observed) then a 4 parameter model was generally used. If the upper asymptote of the curve wasn't well defined then the curve fitting was generally constrained to a maximal response of 100% (i.e., to the response to 2 μM resiquimod) or to the response of the highest concentration tested if this was greater than the resiquimod response. Some curves were bell shaped for one or both cytokines and the cytokine data on the down slope of the bell shaped response (i.e. concentrations above those giving the maximal response) were generally excluded from the fit, usually with the exception of the concentration immediately above the peak response. Curve fitting thus concentrated on the up slope of the dose response curve.

Interferon-α [1] = assay: Induction of Interferon-α using cryopreserved human PBMCs; settings: PBMC, 24 h incubation, normalised to 1 uM resiquimod, read-out: mean pEC50 for induction of IFN-α (converted)
How it was run: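 Cryopreserved healthy-donor PBMCs at 1×10^6 cells/ml in RPMI/10% FCS with 1000 units/ml IFN-gamma, exposed 24 h at 37 °C to 11-point two-fold compound dilutions. Supernatant IFN-α quantified by MSD electrochemiluminescence immunoassay; pEC50 from 4-parameter fit, normalised to 1 uM resiquimod and DMSO.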

Interferon-α [2] = assay: Induction of Interferon-α using fresh human PBMCs; settings: PBMC, 24 hr incubation, relative to 2 μM resiquimod control, read-out: mean pEC50 for induction of IFN-α (converted)
Protocol: as §1, §2, §3, §4, §5

Row | SMILES | EC50 (TNF-α) [µM] | EC50 (Interferon-α [1]) [µM] | EC50 (Interferon-α [2]) [µM]
1 | CCCCOc1nc(N)c2[nH]c(=O)n(CC3CCCN(CC)C3)c2n1 (stereo not shown) [Example 1, 6-Amino-2-butoxy-9-[(1-ethyl-3-piperidinyl)methyl]-7,9-dihydro-8H-purin-8-one] | > 1 | < 1.58 | < 0.1
2 | CCCCOc1nc(N)c2[nH]c(=O)n(CC3CCN(CC)CC3)c2n1 [Example 7] | > 1 | < 1.58 | < 0.1
3 | CCCCOc1nc(N)c2[nH]c(=O)n(CCCC3CCCCN3CC(C)C)c2n1 (stereo not shown) [Example 18, 6-Amino-2-(butyloxy)-9-{3-[1-(2-methylpropyl)-2-piperidinyl]propyl}-7,9-dihydro-8H-purin-8-one] | > 0.0316 | < 1.58 | < 0.000316
4 | CCCCOc1nc(N)c2[nH]c(=O)n(CC3CCCN(CCC)C3)c2n1 (stereo not shown) [Example 23, 6-Amino-2-(butyloxy)-9-[(1-propyl-3-piperidinyl)methyl]-7,9-dihydro-8H-purin-8-one] | > 1 | < 1.58 | < 0.1
5 | CCCCOc1nc(N)c2[nH]c(=O)n(CC3CCCN(C(C)C)C3)c2n1 (stereo not shown) [Example 24, 6-Amino-2-(butyloxy)-9-{[1-(1-methylethyl)-3-piperidinyl]methyl}-7,9-dihydro-8H-purin-8-one] | > 1 | < 1.58 | < 0.1
6 | CCCCOc1nc(N)c2[nH]c(=O)n(CCC3CCCNC3)c2n1 (stereo not shown) [Example 29, 6-amino-2-(butyloxy)-9-[2-(3-piperidinyl)ethyl]-7,9-dihydro-8H-purin-8-one] | > 1 | < 1.58 | < 0.1
7 | CCCCOc1nc(N)c2[nH]c(=O)n(CCC3CCCN(CC)C3)c2n1 (stereo not shown) [Example 30, 6-Amino-2-(butyloxy)-9-[2-(1-ethyl-3-piperidinyl)ethyl]-7,9-dihydro-8H-purin-8-one] | > 1 | < 1.58 | < 0.01
8 | CCCCOc1nc(N)c2[nH]c(=O)n(CCC3CCCN(C(C)C)C3)c2n1 (stereo not shown) [Example 32, 6-Amino-2-(butyloxy)-9-{2-[1-(1-methylethyl)-3-piperidinyl]ethyl}-7,9-dihydro-8H-purin-8-one] | > 1 | < 1.58 | < 0.001
9 | CCCCOc1nc(N)c2[nH]c(=O)n(CCC3CCCN(C4CCCCC4)C3)c2n1 (stereo not shown) [Example 38, 6-Amino-2-(butyloxy)-9-[2-(1-cyclohexyl-3-piperidinyl)ethyl]-7,9-dihydro-8H-purin-8-one] | > 1 | < 1.58 | < 0.001
10 | CCC[C@H](C)Oc1nc(N)c2[nH]c(=O)n(CCC3CCCN(CC)C3)c2n1 (stereo partly drawn) [Example 41, 6-Amino-9-[2-(1-ethyl-3-piperidinyl)ethyl]-2-{[(1S)-1-methylbutyl]oxy}-7,9-dihydro-8H-purin-8-one] | > 0.0316 | < 1.58 | < 0.000316
11 | CCC[C@H](C)Oc1nc(N)c2[nH]c(=O)n(CCC3CCCN(C(C)C)C3)c2n1 (stereo partly drawn) [Example 42, 6-Amino-2-{[(1S)-1-methylbutyl]oxy}-9-{2-[1-(1-methylethyl)-3-piperidinyl]ethyl}-7,9-dihydro-8H-purin-8-one] | > 0.0316 | < 1.58 | < 0.000316
12 | CCC[C@H](C)Oc1nc(N)c2[nH]c(=O)n(CCCCC3CCCN(CC)C3)c2n1 (stereo partly drawn) [Example 66, 6-Amino-9-[4-(1-ethyl-3-piperidinyl)butyl]-2-{[(1S)-1-methylbutyl]oxy}-7,9-dihydro-8H-purin-8-one] | > 0.0316 | < 1.58 | < 0.000316
13 | CCCCOc1nc(N)c2[nH]c(=O)n(CCCCCC3CCCN(C(C)C)C3)c2n1 (stereo not shown) [Example 69, 6-Amino-2-(butyloxy)-9-{5-[1-(1-methylethyl)-3-piperidinyl]pentyl}-7,9-dihydro-8H-purin-8-one] | > 1 | < 1.58 | < 0.01
14 | CCCCOc1nc(N)c2[nH]c(=O)n(CCC3CCN(C(C)C)CC3)c2n1 [Example 81, 6-Amino-2-(butyloxy)-9-{2-[1-(1-methylethyl)-4-piperidinyl]ethyl}-7,9-dihydro-8H-purin-8-one] | > 1 | < 1.58 | < 0.1
15 | CCC[C@H](C)Oc1nc(N)c2[nH]c(=O)n(CCC3CCN(CC)CC3)c2n1 [Example 91, 6-Amino-9-[2-(1-ethyl-4-piperidinyl)ethyl]-2-{[(1S)-1-methylbutyl]oxy}-7,9-dihydro-8H-purin-8-one] | > 0.0316 | < 1.58 | < 0.000316
16 | CCCCOc1nc(N)c2[nH]c(=O)n(CCCC3CCN(CCC)CC3)c2n1 [Example 94, 6-Amino-2-(butyloxy)-9-[3-(1-propyl-4-piperidinyl)propyl]-7,9-dihydro-8H-purin-8-one] | > 1 | < 1.58 | < 0.001
17 | CCCCOc1nc(N)c2[nH]c(=O)n(CCCC3CCN(C(C)C)CC3)c2n1 [Example 95, 6-Amino-2-(butyloxy)-9-{3-[1-(1-methylethyl)-4-piperidinyl]propyl}-7,9-dihydro-8H-purin-8-one] | > 1 | < 1.58 | < 0.01
18 | CCCCOc1nc(N)c2[nH]c(=O)n(CCCC3CCN(CCCC)CC3)c2n1 [Example 96, 6-Amino-2-(butyloxy)-9-[3-(1-butyl-4-piperidinyl)propyl]-7,9-dihydro-8H-purin-8-one] | > 1 | < 1.58 | < 0.001
19 | CCCCOc1nc(N)c2[nH]c(=O)n(CCCC3CCN(C4CCCCC4)CC3)c2n1 [Example 102, 6-Amino-2-(butyloxy)-9-[3-(1-cyclohexyl-4-piperidinyl)propyl]-7,9-dihydro-8H-purin-8-one] | > 1 | < 1.58 | < 0.01
20 | CCC[C@H](C)Oc1nc(N)c2[nH]c(=O)n(CCCC3CCNCC3)c2n1 [Example 104, 6-Amino-2-{[(1S)-1-methylbutyl]oxy}-9-[3-(4-piperidinyl)propyl]-7,9-dihydro-8H-purin-8-one] | > 0.0316 | < 1.58 | < 0.000316
21 | CCCCOc1nc(N)c2[nH]c(=O)n(CCCCCC3CCN(CCC(C)C)CC3)c2n1 [Example 128, 6-amino-2-(butyloxy)-9-{5-[1-(3-methylbutyl)-4-piperidinyl]pentyl}-7,9-dihydro-8H-purin-8-one] | – | < 1.58 | –
22 | CCCCOc1nc(N)c2[nH]c(=O)n(CCCCCC3CCN(C4CCCC4)CC3)c2n1 [Example 129, 6-Amino-2-(butyloxy)-9-[5-(1-cyclopentyl-4-piperidinyl)pentyl]-7,9-dihydro-8H-purin-8-one] | – | < 1.58 | –
23 | CCCCOc1nc(N)c2[nH]c(=O)n(CCCCCC3CCN(CC4CCCC4)CC3)c2n1 [Example 130, 6-Amino-2-(butyloxy)-9-{5-[1-(cyclopentylmethyl)-4-piperidinyl]pentyl}-7,9-dihydro-8H-purin-8-one hydrochloride] | – | < 1.58 | –
24 | CCCCOc1nc(N)c2[nH]c(=O)n(CCCCCC3CCN(CCC4CCCCC4)CC3)c2n1 [Example 131, 6-Amino-2-(butyloxy)-9-{5-[1-(2-cyclohexylethyl)-4-piperidinyl]pentyl}-7,9-dihydro-8H-purin-8-one hydrochloride] | – | < 1.58 | –
25 | CCCCOc1nc(N)c2[nH]c(=O)n(CCCCCCC3CCNCC3)c2n1 [Example 132, 6-Amino-2-(butyloxy)-9-[6-(4-piperidinyl)hexyl]-7,9-dihydro-8H-purin-8-one hydrochloride] | – | < 1.58 | –
26 | CCCCOc1nc(N)c2[nH]c(=O)n(CCCCCCC3CCN(CC)CC3)c2n1 [Example 133, 6-Amino-2-(butyloxy)-9-[6-(1-ethyl-4-piperidinyl)hexyl]-7,9-dihydro-8H-purin-8-one] | – | < 1.58 | –
27 | CCCCOc1nc(N)c2[nH]c(=O)n(CCCCCCC3CCN(C(C)C)CC3)c2n1 [Example 134, 6-Amino-2-(butyloxy)-9-{6-[1-(1-methylethyl)-4-piperidinyl]hexyl}-7,9-dihydro-8H-purin-8-one] | – | < 1.58 | –
